Measured values reported in US12692233B2, “Anthelmintic compounds comprising a pyridine structure” (Intervet Inc., priority 2020, dated 2026).

Experiments:
Ascaridia galli = test: In vitro assay Ascaridia galli larval stage 3; type: cell-based; details: larval stage 3, 20 larvae per well, microscopic examination, read-out: MEC (minimum effective concentration) against Ascaridia galli L3
From the text: […] galli (intestinal roundworm of chicken), larval stage 3 (“L3”); and Oesophagostumum dentatum (nodular worm of swine), larval stages 3 and 4 (respectively “L3” and “L4”) where suspended in a nutrient medium and distributed to 96 well plates with 20 larvae per well. The wells were spiked DMSO solutions of the compounds with declining concentration.

[1] = target: T1, human Maxi K channel (BK channel) (Homo sapiens, UniProt Q12791); test: Agonistic activity at the human Maxi K channel (BK channel), FLIPR membrane potential in CHO K1 cells; type: cell-based; details: CHO K1 cells stably transfected with KCNMA1 and beta1 (KCNMB1) subunits, membrane potential dye
T1 construct: expressed in transfected cells; host or cells: CHO K1
From the text: A CHO K1 cell line was stably transfected with the KCNMA1 (KCa1.1, U11058) and beta1 (KCNMB1) subunits of the human Maxi K channel (Ponte et al, Molecular Pharmacology 2012, 81(4), 567-577).
The complete measurement takes 150 s.

C. elegans Slo-1a = C. elegans Slo-1a (Caenorhabditis elegans, UniProt Q95V25); test: Agonistic activity at C. elegans Slo-1a, FLIPR membrane potential in CHO K1 cells; details: EC50 agonistic activity at C. elegans Slo-1a, CHO K1 cells stably transfected with slo-1a, membrane potential dye
C. elegans Slo-1a, sequence (Q95V25 whole entry): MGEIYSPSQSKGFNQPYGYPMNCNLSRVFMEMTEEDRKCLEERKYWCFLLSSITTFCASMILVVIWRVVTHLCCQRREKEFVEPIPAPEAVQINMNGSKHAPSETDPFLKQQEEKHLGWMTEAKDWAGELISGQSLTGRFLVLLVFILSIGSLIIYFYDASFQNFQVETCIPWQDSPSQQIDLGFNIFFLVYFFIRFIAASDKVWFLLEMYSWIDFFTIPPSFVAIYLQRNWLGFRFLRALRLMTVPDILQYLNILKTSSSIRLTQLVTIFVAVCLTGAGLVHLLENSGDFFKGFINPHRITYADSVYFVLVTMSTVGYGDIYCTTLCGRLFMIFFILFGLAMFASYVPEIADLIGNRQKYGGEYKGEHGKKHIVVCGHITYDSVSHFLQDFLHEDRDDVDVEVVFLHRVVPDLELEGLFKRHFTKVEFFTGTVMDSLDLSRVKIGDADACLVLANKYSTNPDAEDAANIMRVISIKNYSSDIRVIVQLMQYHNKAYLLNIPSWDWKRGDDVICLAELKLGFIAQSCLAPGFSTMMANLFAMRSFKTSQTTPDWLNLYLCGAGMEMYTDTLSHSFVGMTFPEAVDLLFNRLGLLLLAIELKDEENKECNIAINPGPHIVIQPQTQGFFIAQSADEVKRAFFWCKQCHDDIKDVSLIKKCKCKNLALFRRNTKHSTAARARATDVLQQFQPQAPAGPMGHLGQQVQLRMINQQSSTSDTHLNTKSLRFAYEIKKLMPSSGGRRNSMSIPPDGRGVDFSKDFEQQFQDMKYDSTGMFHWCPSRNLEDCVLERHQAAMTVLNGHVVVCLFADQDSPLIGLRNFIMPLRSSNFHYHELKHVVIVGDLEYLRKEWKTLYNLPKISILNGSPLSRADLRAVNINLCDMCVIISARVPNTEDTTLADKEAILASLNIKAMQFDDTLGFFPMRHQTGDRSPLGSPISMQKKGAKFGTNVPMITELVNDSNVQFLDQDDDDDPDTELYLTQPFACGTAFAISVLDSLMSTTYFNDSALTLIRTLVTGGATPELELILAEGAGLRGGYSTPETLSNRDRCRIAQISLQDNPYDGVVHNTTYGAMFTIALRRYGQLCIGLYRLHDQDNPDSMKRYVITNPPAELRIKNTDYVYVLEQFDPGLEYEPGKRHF

T1 sequence (Q12791 1-1178 isoform Q12791-5): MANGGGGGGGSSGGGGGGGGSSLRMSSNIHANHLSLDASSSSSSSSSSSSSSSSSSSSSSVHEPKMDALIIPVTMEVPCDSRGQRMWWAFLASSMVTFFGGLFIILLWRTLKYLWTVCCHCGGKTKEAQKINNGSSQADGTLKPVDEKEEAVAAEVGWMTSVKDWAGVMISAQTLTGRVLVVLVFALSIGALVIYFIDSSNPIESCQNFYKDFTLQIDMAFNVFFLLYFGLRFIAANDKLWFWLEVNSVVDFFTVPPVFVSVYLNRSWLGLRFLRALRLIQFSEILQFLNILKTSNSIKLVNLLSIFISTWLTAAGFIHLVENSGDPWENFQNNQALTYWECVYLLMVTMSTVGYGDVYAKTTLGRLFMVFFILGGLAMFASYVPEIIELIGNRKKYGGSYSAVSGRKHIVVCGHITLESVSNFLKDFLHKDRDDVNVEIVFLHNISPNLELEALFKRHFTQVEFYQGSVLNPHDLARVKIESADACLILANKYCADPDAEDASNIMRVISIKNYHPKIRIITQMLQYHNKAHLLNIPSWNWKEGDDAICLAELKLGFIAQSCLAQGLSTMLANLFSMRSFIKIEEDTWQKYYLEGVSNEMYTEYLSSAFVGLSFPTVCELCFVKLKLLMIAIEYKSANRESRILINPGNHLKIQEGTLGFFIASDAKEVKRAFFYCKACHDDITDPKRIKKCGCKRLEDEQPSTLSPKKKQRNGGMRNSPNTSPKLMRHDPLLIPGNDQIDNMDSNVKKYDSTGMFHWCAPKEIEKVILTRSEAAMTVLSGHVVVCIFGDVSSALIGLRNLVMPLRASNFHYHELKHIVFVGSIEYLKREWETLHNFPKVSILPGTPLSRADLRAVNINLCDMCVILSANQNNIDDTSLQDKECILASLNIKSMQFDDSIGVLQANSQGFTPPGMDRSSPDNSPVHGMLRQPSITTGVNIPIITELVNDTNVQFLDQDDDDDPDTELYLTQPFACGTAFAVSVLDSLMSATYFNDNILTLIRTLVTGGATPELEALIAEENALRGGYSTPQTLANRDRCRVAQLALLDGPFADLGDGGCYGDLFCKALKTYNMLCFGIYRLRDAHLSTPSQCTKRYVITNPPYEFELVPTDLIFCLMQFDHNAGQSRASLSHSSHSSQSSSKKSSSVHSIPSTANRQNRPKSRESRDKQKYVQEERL
T1 sequence (Q16558 whole entry partner): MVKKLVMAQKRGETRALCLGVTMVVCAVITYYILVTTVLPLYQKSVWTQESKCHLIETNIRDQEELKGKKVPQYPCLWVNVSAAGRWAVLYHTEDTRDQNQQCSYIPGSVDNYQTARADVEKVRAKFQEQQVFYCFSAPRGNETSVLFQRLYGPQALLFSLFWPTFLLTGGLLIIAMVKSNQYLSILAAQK

**Q.** What does the source list for `O=C(Nc1cccc2ccccc12)c1cnc(Oc2cc(Cl)cc(Cl)c2)cc1N1CCOCC1` [Compound 26]?
**A.** minimal effective concentration (Ascaridia galli): ≤ 50 µM; EC50 [1]: > 30 µM

**Q.** `CSc1cc(Sc2cc(Cl)cc(Cl)c2)ncc1C(=O)N[C@H]1CCc2ccccc21` [Compound 65] was tested. Which EC50 [1] did it give?
**A.** > 30 µM

**Q.** What about the EC50 (C. elegans Slo-1a) of the same molecule?
**A.** < 10 µM

**Q.** For `CCSc1cc(Oc2cccc(Cl)c2Cl)ncc1C(=O)N[C@H]1CCc2ccccc21` [Compound 78], which EC50 [1] is on record?
**A.** > 30 µM

**Q.** How did the EC50 [1] turn out when `CCOc1cc(Oc2cccc(Cl)c2Cl)ncc1C(=O)N[C@H]1CCCc2ccccc21` [Compound 91] was run?
**A.** > 30 µM

**Q.** For `O=C(Nc1csc2ccccc12)c1cnc(Sc2cc(Cl)cc(Cl)c2)cc1N1CCOCC1` [Compound 27], which minimal effective concentration (Ascaridia galli) is on record?
**A.** ≤ 50 µM

**Q.** And the EC50 [1]?
**A.** > 30 µM

**Q.** With `CN(C)c1cc(Sc2cc(Cl)cc(Cl)c2)ncc1C(=O)N[C@H]1CCCc2ccccc21` [Compound 14] as the molecule, how does the minimal effective concentration (Ascaridia galli) read?
**A.** ≤ 50 µM

**Q.** What about the EC50 [1] of the same molecule?
**A.** > 30 µM

**Q.** And the EC50 (C. elegans Slo-1a)?
**A.** < 10 µM

**Q.** With `CN(C)c1cc(Sc2cccc(Cl)c2Cl)ncc1C(=O)N[C@H]1CCOc2ccccc21` [Compound 20] as the molecule, how does the EC50 [1] read?
**A.** > 30 µM

**Q.** And the EC50 (C. elegans Slo-1a)?
**A.** < 1 µM

**Q.** How did the EC50 [1] turn out when `CN(C)c1cc(S(=O)(=O)c2cc(Cl)cc(Cl)c2)ncc1C(=O)N[C@H]1CCc2ccccc21` [Compound 105] was run?
**A.** > 30 µM

**Q.** For `CCSc1cc(Oc2cccc(Cl)c2Cl)ncc1C(=O)N[C@H]1CCCc2ccccc21` [Compound 76], which EC50 [1] is on record?
**A.** > 30 µM

**Q.** Which results are given for `O=C(N[C@H]1CCCc2ccccc21)c1cnc(Nc2cc(Cl)cc(Cl)c2)cc1N1CCOCC1` [Compound 106]?
**A.** minimal effective concentration (Ascaridia galli): ≤ 50 µM; EC50 [1]: > 30 µM; EC50 (C. elegans Slo-1a): < 10 µM

**Q.** With `CCSc1cc(Oc2cccc(Cl)c2Cl)ncc1C(=O)N[C@H]1CCOc2ccccc21` [Compound 77] as the molecule, how does the EC50 [1] read?
**A.** > 30 µM

**Q.** `CCOc1cc(Sc2cccc(Cl)c2Cl)ncc1C(=O)N[C@H]1CCCc2ccccc21` [Compound 70] was tested. Which EC50 [1] did it give?
**A.** > 30 µM

**Q.** `O=C(N[C@H]1CCc2ccccc21)c1cnc(Oc2cc(Cl)cc(Cl)c2)cc1N1CCOCC1` [Compound 25, (S)-6-(3,5-dichlorophenoxy)-N-(2,3-dihydro-1H-inden-1-yl)-4-morpholinonicotinamide] was tested. Which EC50 [1] did it give?
**A.** > 30 µM

**Q.** `CN(C)c1cc([S+]([O-])c2cc(Cl)cc(Cl)c2)ncc1C(=O)N[C@H]1CCc2ccccc21` (stereo partly drawn) [Compound 104, 6-((3,5-dichlorophenyl)sulfinyl)-N—((S)-2,3-dihydro-1H-inden-1-yl)-4-(dimethylamino)nicotinamide] was tested. Which EC50 [1] did it give?
**A.** > 30 µM

**Q.** Which results are given for `CN(C)c1cc(Nc2cc(Cl)cc(Cl)c2)ncc1C(=O)N[C@H]1CCCc2ccccc21` [Compound 108]?
**A.** minimal effective concentration (Ascaridia galli): ≤ 50 µM; EC50 [1]: > 30 µM; EC50 (C. elegans Slo-1a): < 10 µM

**Q.** Which results are given for `CN(C)c1cc(Sc2cccc(Cl)c2Cl)ncc1C(=O)N[C@H]1CCCc2ccccc21` [Compound 19]?
**A.** minimal effective concentration (Ascaridia galli): ≤ 50 µM; EC50 [1]: > 30 µM; EC50 (C. elegans Slo-1a): < 1 µM

**Q.** Which minimal effective concentration (Ascaridia galli) does the source give for `O=C(Nc1cccc2ccccc12)c1cnc(Sc2cccc(Cl)c2Cl)cc1N1CCOCC1` [Compound 49] here?
**A.** ≤ 50 µM

**Q.** And the EC50 [1]?
**A.** > 30 µM

**Q.** `CSc1cc(Sc2cccc(Cl)c2Cl)ncc1C(=O)N[C@H]1CCCc2ccccc21` [Compound 54] was tested. Which minimal effective concentration (Ascaridia galli) did it give?
**A.** ≤ 50 µM

**Q.** What about the EC50 [1] of the same molecule?
**A.** > 30 µM

**Q.** And the EC50 (C. elegans Slo-1a)?
**A.** < 10 µM

**Q.** `O=C(Nc1csc2ccccc12)c1cnc(Oc2cc(Cl)cc(Cl)c2)cc1N1CCOCC1` [Compound 47] was tested. Which minimal effective concentration (Ascaridia galli) did it give?
**A.** ≤ 50 µM

**Q.** What about the EC50 [1] of the same molecule?
**A.** > 30 µM

**Q.** How did the EC50 [1] turn out when `CCOc1cc(Oc2cc(Cl)cc(Cl)c2)ncc1C(=O)N[C@H]1CCOc2ccccc21` [Compound 89] was run?
**A.** > 30 µM

**Q.** With `O=C(N[C@H]1CCCc2ccccc21)c1cnc(Oc2cccc(Cl)c2Cl)cc1N1CCOCC1` [Compound 6] as the molecule, how does the EC50 [1] read?
**A.** > 30 µM

**Q.** What about the EC50 (C. elegans Slo-1a) of the same molecule?
**A.** < 1 µM

**Q.** How did the EC50 [1] turn out when `CSc1cc(Oc2cc(Cl)cc(Cl)c2)ncc1C(=O)N[C@H]1CCCc2ccccc21` [Compound 59] was run?
**A.** > 30 µM

**Q.** And the EC50 (C. elegans Slo-1a)?
**A.** < 10 µM

**Q.** With `COc1cc(Oc2cc(Cl)cc(Cl)c2)ncc1C(=O)N[C@H]1CCc2ccccc21` [Compound 87] as the molecule, how does the EC50 [1] read?
**A.** > 30 µM

**Q.** `CSc1cc(Oc2cc(Cl)cc(Cl)c2)ncc1C(=O)N[C@H]1CCc2ccccc21` [Compound 61] was tested. Which minimal effective concentration (Ascaridia galli) did it give?
**A.** ≤ 50 µM

**Q.** And the EC50 [1]?
**A.** > 30 µM

**Q.** Which EC50 [1] does the source give for `O=C(N[C@@H]1CCOc2ccccc21)c1cnc(Oc2cccc(Cl)c2Cl)cc1N1CCOCC1` [Compound 51] here?
**A.** > 30 µM

**Q.** `O=C(N[C@H]1CCOc2ccccc21)c1cnc(Sc2cc(Cl)cc(Cl)c2)cc1N1CCOCC1` [Compound 3, (S)—N-(chroman-4-yl)-6-((3,5-dichlorophenyl)thio)-4-morpholinonicotinamide] was tested. Which EC50 [1] did it give?
**A.** > 30 µM

**Q.** What about the EC50 (C. elegans Slo-1a) of the same molecule?
**A.** < 1 µM

**Q.** For `CCSc1cc(Oc2cc(Cl)cc(Cl)c2)ncc1C(=O)N[C@H]1CCc2ccccc21` [Compound 81], which EC50 [1] is on record?
**A.** > 30 µM

**Q.** `CCSc1cc(Oc2cc(Cl)cc(Cl)c2)ncc1C(=O)N[C@H]1CCCc2ccccc21` [Compound 79] was tested. Which EC50 [1] did it give?
**A.** > 30 µM

**Q.** With `CSc1cc(Oc2cccc(Cl)c2Cl)ncc1C(=O)N[C@H]1CCCc2ccccc21` [Compound 56] as the molecule, how does the minimal effective concentration (Ascaridia galli) read?
**A.** ≤ 50 µM

**Q.** What about the EC50 [1] of the same molecule?
**A.** > 30 µM

**Q.** And the EC50 (C. elegans Slo-1a)?
**A.** < 10 µM

**Q.** What does the source list for `CSc1cc(Sc2cc(Cl)cc(Cl)c2)ncc1C(=O)N[C@H]1CCCc2ccccc21` [Compound 69]?
**A.** EC50 [1]: > 30 µM; EC50 (C. elegans Slo-1a): < 10 µM
